# Data: patent US20230000996A1, “RAPAFUCIN DERIVATIVE COMPOUNDS AND METHODS OF USE THEREOF” (The Johns Hopkins University, priority 2019, published 2023)
# Assay: Nucleoside uptake, single concentration assay (Rel.Uptake); cell line indicated in each table
# Type: cell-based
# Settings: 293T cells; single concentration; response relative to DMSO
# Procedure: Nucleoside Uptake Assay (uptake). Nuceloside uptake assays were performed with using 3H-Thymidine as described in Guo et al. (2018) Nat. Chem. 11:254-63. Specific cell lines are indicated in each assay and cultured in complete growth media. Activity is scored according to the IC50 values relative to DMSO control. “Low” indicates an IC50 greater than 600 nM, “Medium” indicates an IC50 between 300 nM and 600 nM “High” indicates an IC50 less than 300 nM. “Rel.Uptake” refers to uptake activity characterization relative to a single concentration assay. “Low” indicates a response greater than 0.6 times the activity relative to DMSO, “Medium” indicates a response between 0.6 and 0.3 times the activity relative to DMSO, “High” indicates a response less than 0.3 times the activity relative to DMSO.
row,Compound,"Rel. Uptake, 293T"
1,COc1ccc(CC[C@H]2OC(=O)[C@@H]3CCCCN3C(=O)C(=O)C(C)(C)COC(=O)C=CCCN(C)C(=O)[C@H](CC(C)C)N(C)C(=O)[C@H]3CCCN3C(=O)[C@H](CC(=O)OC(C)(C)C)N(C)C(=O)C(c3ccccc3)NC(=O)CCC(=O)Nc3cccc2c3)cc1OC (some centres unmarked) [Compound 1066],high
2,COc1ccc(CC[C@H]2OC(=O)[C@@H]3CCCCN3C(=O)C(=O)C(C)(C)COC(=O)C=CCCN(C)C(=O)[C@H](CC(C)C)N(C)C(=O)[C@H]3CCCN3C(=O)[C@H](Cc3ccc(CC(=O)OC(C)(C)C)cc3)NC(=O)C(c3ccccc3)NC(=O)CCC(=O)Nc3cccc2c3)cc1OC (some centres unmarked) [Compound 1081],medium
3,COc1ccc(CC[C@H]2OC(=O)[C@@H]3CCCCN3C(=O)C(=O)C(C)(C)COC(=O)C=CCCN(C)C(=O)[C@H](CC(C)C)N(C)C(=O)[C@H]3CCCN3C(=O)[C@H](Cc3ccc(OCc4ccccc4)cc3)NC(=O)C(c3ccccc3)NC(=O)CCC(=O)Nc3cccc2c3)cc1OC (some centres unmarked) [Compound 1082],low

# Same assay, conditions: nucleoside uptake, single concentration assay, 293T cells, response relative to DMSO
row,Compound,"Rel. Uptake, 293T"
1,COc1ccc(CC[C@H]2OC(=O)[C@@H]3CCCCN3C(=O)C(=O)C(C)(C)COC(=O)C=CCCN(C)C(=O)[C@@H](c3ccccc3)NC(=O)[C@H](Cc3ccc(OP(C)(C)=O)cc3)NC(=O)[C@H]3CCCN3C(=O)[C@H](CC(C)C)N(C)C(=O)COc3cccc2c3)cc1OC [Compound 1520],low
2,COc1ccc(CC[C@H]2OC(=O)[C@@H]3CCCCN3C(=O)C(=O)C(C)(C)COC(=O)C=CCCN(C)C(=O)[C@H](CC(C)C)N(C)C(=O)[C@H]3CCCN3C(=O)[C@H](Cc3ccc(O)cc3)NC(=O)C(c3ccccc3)NC(=O)CCC(=O)Nc3cccc2c3)cc1OC (some centres unmarked) [Compound 1522],high
3,COc1ccc(CC[C@H]2OC(=O)[C@@H]3CCCCN3C(=O)C(=O)C(C)(C)CNC(=O)C=CCCN(C)C(=O)[C@H](CC(C)C)N(C)C(=O)[C@H]3CCCN3C(=O)[C@H](Cc3ccccc3)N(C)C(=O)C(c3ccccc3)NC(=O)CCC(=O)Nc3cccc2c3)cc1OC (some centres unmarked) [Compound 1555],high
4,COc1ccc(CC[C@H]2OC(=O)[C@@H]3CCCCN3C(=O)C(=O)C(C)(C)COC(=O)C=CCCN(C)NC(c3ccccc3)C(=O)N(C)[C@@H](Cc3ccccc3)C(=O)N3CCC[C@@H]3C(=O)N(C)[C@@H](CC(C)C)C(=O)C(=O)CCOc3cccc2c3)cc1OC (some centres unmarked) [Compound 1556],low
5,COc1ccc(CC[C@H]2OC(=O)[C@@H]3CCCCN3C(=O)C(=O)C(C)(C)COC(=O)C=CCCN(C)C(=O)[C@H](CC(C)C)N(C)C(=O)[C@H]3CCCN3C(=O)[C@H](Cc3ccc(C(=O)NCCO)cc3)NC(=O)[C@H](c3ccccc3)NC(=O)CCC(=O)Nc3cccc2c3)cc1OC [Compound 1558],high
6,COc1ccc(CC[C@H]2OC(=O)[C@@H]3CCCCN3C(=O)C(=O)C(C)(C)COC(=O)C=CCCN(C)C(=O)[C@H](CC(C)C)N(C)C(=O)[C@H]3CCCN3C(=O)[C@H](Cc3ccc(C(=O)Nc4cccnc4)cc3)NC(=O)[C@H](c3ccccc3)NC(=O)CCC(=O)Nc3cccc2c3)cc1OC [Compound 1562],low
7,CCCC[C@H]1C(=O)N[C@@H](Cc2ccc3ccccc3c2)C(=O)N(C)[C@@H](COC(C)(C)C)C(=O)NCC(=O)N(C)CCC=CC(=O)OCC(C)(C)C(=O)C(=O)N2CCCC[C@H]2C(=O)O[C@H](CCc2ccc(OC)c(OC)c2)c2cccc(c2F)OCC(=O)N1C [Compound 1563],high
8,CCCC[C@H]1C(=O)N[C@@H](Cc2ccc3ccccc3c2)C(=O)N(C)[C@@H](COC(C)(C)C)C(=O)NCC(=O)N(C)CCC=CC(=O)OCC(C)(C)C(=O)C(=O)N2CCCC[C@H]2C(=O)O[C@H](CCc2ccc(OC)c(O)c2)c2cccc(c2)OCC(=O)N1C [Compound 1564],high
9,CCCC[C@H]1C(=O)N[C@@H](Cc2ccc3ccccc3c2)C(=O)N(C)[C@@H](COC(C)(C)C)C(=O)NCC(=O)N(C)CCC=CC(=O)OCC(C)(C)C(=O)C(=O)N2CCCC[C@H]2C(=O)O[C@H](CCc2ccc(OC)c(OC)c2)c2cncc(c2)OCC(=O)N1C [Compound 1565],low
10,COc1cc(CC[C@H]2OC(=O)[C@@H]3CCCCN3C(=O)C(=O)C(C)(C)COC(=O)C=CCCN(C)C(=O)[C@@H](Cc3ccccc3)NC(=O)CN(C)C(=O)[C@@H](Cc3ccccc3)NC(=O)[C@H](Cc3ccc(O)cc3)N(C)C(=O)COc3cccc2c3)cc(OC)c1OC [Compound 1566],medium
11,COc1cc(CC[C@H]2OC(=O)[C@@H]3CCCCN3C(=O)C(=O)C(C)(C)COC(=O)C=CCCN(C)C(=O)[C@@H](Cc3ccccc3)NC(=O)CN(C)C(=O)[C@@H](Cc3ccccc3)NC(=O)[C@H](Cc3ccc(O)cc3)N(C)C(=O)COc3cccc2c3)cc(O)c1OC [Compound 1567],medium
12,COc1cc(O)c(CC[C@H]2OC(=O)[C@@H]3CCCCN3C(=O)C(=O)C(C)(C)COC(=O)C=CCCN(C)C(=O)[C@@H](Cc3ccccc3)NC(=O)CN(C)C(=O)[C@@H](Cc3ccccc3)NC(=O)[C@H](Cc3ccc(O)cc3)N(C)C(=O)COc3cccc2c3)cc1OC [Compound 1568],low
13,COc1cc(CC[C@H]2OC(=O)[C@@H]3CCCCN3C(=O)C(=O)C(C)(C)COC(=O)C=CCCN(C)C(=O)[C@@H](Cc3ccccc3)NC(=O)CN(C)C(=O)[C@@H](Cc3ccccc3)NC(=O)[C@H](Cc3ccc(O)cc3)N(C)C(=O)COc3cccc2c3)cc(F)c1OC [Compound 1569],low
14,COc1cc(F)c(CC[C@H]2OC(=O)[C@@H]3CCCCN3C(=O)C(=O)C(C)(C)COC(=O)C=CCCN(C)C(=O)[C@@H](Cc3ccccc3)NC(=O)CN(C)C(=O)[C@@H](Cc3ccccc3)NC(=O)[C@H](Cc3ccc(O)cc3)N(C)C(=O)COc3cccc2c3)cc1OC [Compound 1570],medium
15,COc1ccc(CC[C@H]2OC(=O)[C@@H]3CCCCN3C(=O)C(=O)C(C)(C)COC(=O)C=CCCN(C)C(=O)[C@@H](Cc3ccccc3)NC(=O)CN(C)C(=O)[C@@H](Cc3ccccc3)NC(=O)[C@H](Cc3ccc(O)cc3)N(C)C(=O)COc3cccc2c3)c(F)c1OC [Compound 1571],low
16,COc1ccc(CC[C@H]2OC(=O)[C@@H]3CN(C(=O)OCC4c5ccccc5-c5ccccc54)CCN3C(=O)C(=O)C(C)(C)COC(=O)C=CCCN(C)C(=O)[C@@H](Cc3ccccc3)NC(=O)CN(C)C(=O)[C@@H](Cc3ccccc3)NC(=O)[C@H](Cc3ccc(O)cc3)N(C)C(=O)COc3cccc2c3)cc1OC [Compound 1572],low
17,COc1ccc(CC[C@H]2OC(=O)[C@@H]3CNCCN3C(=O)C(=O)C(C)(C)COC(=O)C=CCCN(C)C(=O)[C@@H](Cc3ccccc3)NC(=O)CN(C)C(=O)[C@@H](Cc3ccccc3)NC(=O)[C@H](Cc3ccc(O)cc3)N(C)C(=O)COc3cccc2c3)cc1OC [Compound 1573],low
18,COc1ccc(CC[C@H]2OC(=O)[C@@H]3CN(C)CCN3C(=O)C(=O)C(C)(C)COC(=O)C=CCCN(C)C(=O)[C@@H](Cc3ccccc3)NC(=O)CN(C)C(=O)[C@@H](Cc3ccccc3)NC(=O)[C@H](Cc3ccc(O)cc3)N(C)C(=O)COc3cccc2c3)cc1OC [Compound 1574],low
19,COc1ccc(CC[C@H]2OC(=O)[C@@H]3CCCCN3C(=O)C(=O)C(C)(C)COC(=O)C=CCCN(C)C(=O)[C@@H](Cc3ccccc3)NC(=O)CN(C)C(=O)[C@@H](Cc3ccccc3)NC(=O)[C@H](Cc3ccc(O)cc3)N(C)C(=O)COc3ccc(F)c2c3)cc1OC [Compound 1575],low
20,COc1ccc(CC[C@H]2OC(=O)[C@@H]3CCCCN3C(=O)C(=O)C(C)(C)COC(=O)C=CCCN(C)C(=O)[C@@H](Cc3ccccc3)NC(=O)CN(C)C(=O)[C@@H](Cc3ccccc3)NC(=O)[C@H](Cc3ccc(O)cc3)N(C)C(=O)COc3cc(F)cc2c3)cc1OC [Compound 1576],medium
21,COc1ccc(CC[C@H]2OC(=O)[C@@H]3CCCCN3C(=O)C(=O)C(C)(C)COC(=O)C=CCCN(C)C(=O)[C@@H](Cc3ccccc3)NC(=O)CN(C)C(=O)[C@@H](Cc3ccccc3)NC(=O)[C@H](Cc3ccc(O)cc3)N(C)C(=O)COc3cccc2c3)c(OC)c1OC [Compound 1577],medium
22,COc1ccc(CC[C@H]2OC(=O)[C@@H]3CCCCN3C(=O)C(=O)C(C)(C)COC(=O)C=CCCN(C)C(=O)[C@@H](Cc3ccccc3)NC(=O)CN(C)C(=O)[C@@H](Cc3ccccc3)NC(=O)[C@H](Cc3ccc(O)cc3)N(C)C(=O)COc3cc2ccc3F)cc1OC [Compound 1578],low
23,COc1ccc(CC[C@H]2OC(=O)[C@@H]3CCCCN3C(=O)C(=O)C(C)(C)COC(=O)C=CCCN(C)C(=O)[C@@H](Cc3ccccc3)NC(=O)CN(C)C(=O)[C@@H](Cc3ccccc3)NC(=O)[C@H](Cc3ccc(O)cc3)N(C)C(=O)COc3cccc2c3F)cc1OC [Compound 1579],medium
24,COc1ccc(CC[C@H]2OC(=O)[C@@H]3CCCCN3C(=O)C(=O)C(C)(C)COC(=O)C=CCCN(C)C(=O)[C@@H](Cc3ccccc3)NC(=O)CN(C)C(=O)[C@@H](Cc3ccccc3)NC(=O)[C@H](Cc3ccc(O)cc3)N(C)C(=O)COc3cncc2c3)cc1OC [Compound 1580],low
25,COc1cc(OC)c(OC)cc1CC[C@H]1OC(=O)[C@@H]2CCCCN2C(=O)C(=O)C(C)(C)COC(=O)C=CCCN(C)C(=O)[C@@H](Cc2ccccc2)NC(=O)CN(C)C(=O)[C@@H](Cc2ccccc2)NC(=O)[C@H](Cc2ccc(O)cc2)N(C)C(=O)COc2cccc1c2 [Compound 1581],medium
26,COc1cc(CC[C@H]2OC(=O)[C@@H]3CCCCN3C(=O)C(=O)C(C)(C)COC(=O)C=CCCN(C)C(=O)[C@@H](Cc3ccccc3)NC(=O)CN(C)C(=O)[C@@H](Cc3ccccc3)NC(=O)[C@H](Cc3ccc(O)cc3)N(C)C(=O)COc3cccc2c3)c(OC)c(OC)c1 [Compound 1582],low
